# Earlier results in patent US20220000966A1, “COMPOSITION AND METHOD FOR TREATING THE LUNGS” (priority 2018, published 2022).
# Read-outs that look alike come from different tables or passages of the source.
# Columns and labels:
# TRPA1 [1] = molecular target: T1, TRPA1 (Homo sapiens, UniProt O75762)
# [2] = system: patients with reversible obstructive ventilatory disorders
# [3] = system: patients with steroid-dependent bronchial asthma
# lymphocytes = conditions: 1.5 μg/mL
# human TRPM8 (hTRPM8) = human TRPM8 (hTRPM8) (Homo sapiens, UniProt Q7Z2W7)
# human TRPM8 (hTRPM8), sequence (Q7Z2W7 whole entry): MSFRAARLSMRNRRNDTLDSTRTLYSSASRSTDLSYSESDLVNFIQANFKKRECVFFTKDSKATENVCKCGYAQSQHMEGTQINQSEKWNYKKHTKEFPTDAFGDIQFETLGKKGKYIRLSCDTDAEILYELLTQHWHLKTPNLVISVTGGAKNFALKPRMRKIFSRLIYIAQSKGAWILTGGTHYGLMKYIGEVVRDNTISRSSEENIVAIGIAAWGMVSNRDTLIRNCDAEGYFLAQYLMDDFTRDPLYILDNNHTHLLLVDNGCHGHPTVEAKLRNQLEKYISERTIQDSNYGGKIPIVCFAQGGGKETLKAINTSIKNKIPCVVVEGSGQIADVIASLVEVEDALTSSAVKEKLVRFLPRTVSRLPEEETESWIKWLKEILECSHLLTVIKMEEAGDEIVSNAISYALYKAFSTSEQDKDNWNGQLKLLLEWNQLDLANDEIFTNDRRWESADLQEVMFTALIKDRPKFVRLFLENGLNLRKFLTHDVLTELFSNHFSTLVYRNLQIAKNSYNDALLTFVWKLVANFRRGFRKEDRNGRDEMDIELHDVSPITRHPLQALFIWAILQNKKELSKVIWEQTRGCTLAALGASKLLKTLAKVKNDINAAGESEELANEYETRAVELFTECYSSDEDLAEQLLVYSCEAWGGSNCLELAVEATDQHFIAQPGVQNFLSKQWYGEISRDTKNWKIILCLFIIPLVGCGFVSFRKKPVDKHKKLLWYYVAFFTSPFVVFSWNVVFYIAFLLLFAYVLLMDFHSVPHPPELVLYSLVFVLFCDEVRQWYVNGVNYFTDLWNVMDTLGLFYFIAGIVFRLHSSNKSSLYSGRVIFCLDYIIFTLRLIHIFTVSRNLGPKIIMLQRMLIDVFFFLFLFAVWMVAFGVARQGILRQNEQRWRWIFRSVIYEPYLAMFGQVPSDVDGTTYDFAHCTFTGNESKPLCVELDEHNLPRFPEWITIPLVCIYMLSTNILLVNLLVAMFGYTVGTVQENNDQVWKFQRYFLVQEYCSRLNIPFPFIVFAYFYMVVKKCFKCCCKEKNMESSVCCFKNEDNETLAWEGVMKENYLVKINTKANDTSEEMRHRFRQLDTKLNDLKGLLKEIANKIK
# human subjects = conditions: octanol on the neck of human subjects followed by 1,8-cineole
# TRPA1 [4] = molecular target: T1, TRPA1; remark: listed apart in the source
# [5] = system: primary human bronchial epithelial cells; conditions: cigarette smoke extract, pretreatment
# [6] = system: airway inflammation in asthma; conditions: in vivo
# leukemia K562 cells = conditions: in vitro and ex vivo
# [7] = orally 600 mg/day, COPD patients
# [8] = system: particulate air pollution-induced inflammation; conditions: in vivo
# [9] = system: human lung epithelial cells (A-549), fibroblasts (HFL1), and lymphoma cells (U-937)
# [10] = oral administration, healthy subjects
# human MonoMac6 cells = conditions: cells pretreated
# patients = conditions: inhaled
# Guinea pigs = conditions: pretreatment
# mice = conditions: injection
# rats = conditions: 50 mg/kg orally each day, smoke 1 hr/day for 56 days
# [11] = patients with bronchial asthma, day 4, 1,8-cineole capsules 200 mg 3 times/day
# [12] = 200 mg orally 3 times per day for 12 weeks
# T1 sequence (O75762 whole entry): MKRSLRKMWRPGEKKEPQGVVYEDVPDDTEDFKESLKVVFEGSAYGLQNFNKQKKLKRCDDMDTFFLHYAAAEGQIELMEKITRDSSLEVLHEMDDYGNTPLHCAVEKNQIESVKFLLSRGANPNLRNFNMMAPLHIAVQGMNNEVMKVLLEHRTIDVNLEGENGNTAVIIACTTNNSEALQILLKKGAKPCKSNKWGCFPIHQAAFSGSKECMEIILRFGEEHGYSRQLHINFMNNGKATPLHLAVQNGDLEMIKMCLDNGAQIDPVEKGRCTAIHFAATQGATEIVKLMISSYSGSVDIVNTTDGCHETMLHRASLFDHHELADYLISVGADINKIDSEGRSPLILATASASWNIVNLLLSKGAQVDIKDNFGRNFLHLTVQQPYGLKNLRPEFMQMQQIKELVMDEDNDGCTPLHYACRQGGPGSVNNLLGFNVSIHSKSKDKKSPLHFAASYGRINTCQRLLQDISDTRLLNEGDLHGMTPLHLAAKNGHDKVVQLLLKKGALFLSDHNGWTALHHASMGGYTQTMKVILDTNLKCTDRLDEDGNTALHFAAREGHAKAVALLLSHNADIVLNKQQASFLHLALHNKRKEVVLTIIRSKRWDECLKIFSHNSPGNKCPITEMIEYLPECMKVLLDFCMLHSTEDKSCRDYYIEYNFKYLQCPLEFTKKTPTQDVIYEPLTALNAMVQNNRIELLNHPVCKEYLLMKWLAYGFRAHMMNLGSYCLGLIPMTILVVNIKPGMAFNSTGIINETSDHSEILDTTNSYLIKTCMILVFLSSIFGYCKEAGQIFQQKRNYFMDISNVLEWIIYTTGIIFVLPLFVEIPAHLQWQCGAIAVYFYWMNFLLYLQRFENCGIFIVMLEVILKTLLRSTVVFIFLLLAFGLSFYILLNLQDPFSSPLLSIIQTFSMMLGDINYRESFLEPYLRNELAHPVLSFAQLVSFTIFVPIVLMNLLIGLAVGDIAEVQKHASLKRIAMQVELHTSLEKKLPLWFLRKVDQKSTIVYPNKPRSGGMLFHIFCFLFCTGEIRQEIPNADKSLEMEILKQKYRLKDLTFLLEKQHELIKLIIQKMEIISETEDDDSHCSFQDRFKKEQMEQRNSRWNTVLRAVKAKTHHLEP
compound,measurement,setting,value
"CC12CCC(CC1)C(C)(C)O2 [1,8-cineole]",change of LTB4 production from monocytes ex vivo,"blood monocytes; healthy volunteers, day 4",−57.9%
same,change of PGE2 production from monocytes ex vivo,"blood monocytes; healthy volunteers, day 4",−42.7%
same,change of LTB4 production from monocytes ex vivo,blood monocytes; [11],−40.3%
same,change of PGE2 production from monocytes ex vivo,blood monocytes; [11],−31.3%
same,action on hTRPA1,TRPA1 [1],antagonist
same,"inhibition of production of TNF-α, IL-1β, LTB4 and TXB2",monocytes,dose-dependent and highly significant inhibition
same,change of airway resistance,[2]; treatment duration of eight weeks,−21%
same,change of airway resistance,[2]; treatment duration of one week,−23%
same,reduction in daily prednisolone dosage tolerated,[3]; [12],36%
same,"reduction in daily prednisolone dosage, mean",[3]; [12],3.75 mg
same,patients who achieved a reduction of oral steroids,"[3]; 1,8-cineole group",Twelve of 16
same,inhibition of IL-1β production in lymphocytes,lymphocytes,84%
same,TRPM8 activation,human TRPM8 (hTRPM8),activates
same,irritation of octanol,human subjects,significantly reduced
"C=C1CC/C=C(\C)CC[C@@H]2[C@@H]1CC2(C)C [BCP, β-caryophyllene]",action on TRPA1,TRPA1 [4],agonist
CC(C)c1ccc(NC(=O)Cn2cnc3c2c(=O)n(C)c(=O)n3C)cc1 [HC-030031],Ca^2+ influx,[5],decrease in Ca^2+ influx was similar
CCNC(=O)CC[C@H](N)C(=O)O [L-theanine],inflammatory cells in bronchoalveolar lavage fluid (BALF),[6],dramatically attenuated
same,"production of IgE, MCP-1, IL-4, IL-5, IL-13, TNF-α and INF-γ in BALF",[6],significantly decreased
same,growth of leukemia K562 cells,leukemia K562 cells,significantly suppressed
same,migration and invasion of A549 cells,human lung cancer A549,significantly inhibited
same,growth of human lung cancer A549 cells,human lung cancer A549; in vitro and ex vivo,significantly suppressed
CC(=O)N[C@@H](CS)C(=O)O [N-acetyl cysteine],sputum eosinophil cationic protein concentrations and adhesion of polymorphonuclear leukocytes,[7],reduced
same,Ca^2+ influx,[5],prevented
same,particulate air pollution-induced inflammation,[8],effectively prevented
COc1ccc2cc3[n+](cc2c1OC)CCc1cc2c(cc1-3)OCO2 [berberine],inhibition of inflammatory agents-induced cytokine production,[9],dose-dependent and cell type-independent
COc1cc(O)cc(O)c1C(=O)/C=C/c1ccccc1 [cardamonin],cardiomyocyte constriction,cardiomyocyte,nor did it impair
"N[C@@H](CCC(=O)N[C@@H](CS)C(=O)NCC(=O)O)C(=O)O [glutathione, γ-L-glutamyl-L-cysteinyl-glycine]",increase of plasma glutathione levels,[10],ineffective
same,period for which epithelial lung fluid glutathione remained elevated,aerosol nebulizer,2 h
same,glutathione epithelial lung fluid concentration,"aerosol nebulizer, 4 mL of 150 mg/mL over 25 minutes",about 337 μM
same,glutathione concentration increase in epithelial lung fluid,intravenously administered 600 mg,no measurable glutathione concentration increases
same,cigarette smoke-induced reduction in HDAC levels,human MonoMac6 cells,reversed
same,IL-8 release,human MonoMac6 cells; cigarette smoke extract,significantly inhibited
same,FEV1 change from baseline,patients,−19%
same,induced breathlessness,patients,three
same,induced cough,patients,four
same,total pulmonary resistance change from baseline,patients,+61%
"CC1CCC(C(C)C)C(O)C1 (centres unmarked) [menthol, reference compound]",TRPA1 activation,TRPA1 [1],activated
same,TRPM8 activation,human TRPM8 (hTRPM8),activation
CC1=CC(=O)C(C(C)C)=CC1=O [thymoquinone],TNF-α level,Guinea pigs,significantly reduced
same,bronchoalveolar lavage fluid Leukotriene B4 (LTB4) levels,Guinea pigs,did not significantly change
same,malondialdehyde level,Guinea pigs,significantly reduced
same,neutrophil elastase (NE) level,Guinea pigs,significantly reduced
same,chronic inflammatory changes,mice,reduction
epigallocatechin-3-gallate,TNF-α level,Guinea pigs,significantly reduced
same,bronchoalveolar lavage fluid Leukotriene B4 (LTB4) levels,Guinea pigs,significantly reduced
same,glutathione peroxidase activity,Guinea pigs,increase
same,myeloperoxidase in lung tissue homogenate,Guinea pigs,significantly reduced
same,neutrophil elastase (NE) level,Guinea pigs,significantly reduced
same,superoxide dismutase activity,Guinea pigs,not significantly affected
same,"cigarette smoke-induced oxidative stress, neutrophilic inflammation, airway mucus production and collagen deposition",rats,ameliorated
